In patent US20260027131A1, “PRODRUGS, PRODRUG COMPOSITIONS AND RELATED METHODS” (Praesidia Biotherapeutics Inc., priority 2022, published 2026):
“And” between values parts separate entries of the source, which are not always exact repeats. Identical values can stand only once.

Experiments:
[1] = in vitro; details: human, plasma
Method: (§1) Rat and human plasma were obtained from qualified vendors. 5 μL of 500 μM of the test article solution was added to 495 μL of pre-incubated human or rat plasma to reach a final concentration of 5 μM. The final concentration of organic solvents was not more than 0.5%. The assay was performed in duplicate. The reaction samples were incubated in a 37° C. water bath with shaking at approximately 60 rpm. 50 μL of the reaction samples were collected at 0, 30, 60, 120 and 180 minutes. The reaction was stopped by adding 300 μL of room temperature quench solution (acetonitrile containing internal standards (IS, 200 nM labetalol, 100 nM alprazolam and 2 μM ketoprofen)). The samples were vortexed for 5 minutes followed by centrifugation of the samples at 3,220 g for 30 minutes at room temperature to precipitate the protein. 100 μL of the supernatant was transferred to a new plate and diluted with 100 μL or 200 μL water according to the LC/MS signal response and peak shape. The samples were mixed well and analyzed using LC/MS/MS. The remaining percentage of parent drug versus reaction time was used to calculate the t1/2 value.

[2] = molecular target: DPP4 (Homo sapiens, UniProt P27487); assay: in vitro; details: recombinant enzyme
Method: Aliquots were withdrawn at 0, 60 and 120 minutes from the reaction mixture and quenched with 20-volumes of cold acetonitrile. […] Glycine-proline p-nitroanilide was used as a positive control for this assay.

[3] = Rat plasma stability; format: in vitro ADME; details: rat; for half-life at 5 μM: plasma
Method: Rat and human plasma were obtained from qualified vendors. […] The assay was performed in duplicate.

[4] = Chemical stability at pH 4.5 and pH 7.4 in PBS; format: physicochemical; details: for Chemical Stability, pH 4.5: PBS pH 4.5, 37° C.; for Chemical Stability, pH 4.5 / Chemical Stability, pH 7.4: 5 μM, up to 240 min; for Chemical Stability, pH 7.4: PBS pH 7.4, 37° C.
Method: The assay was performed in duplicate. […] Samples were incubated at 37° C. at 600 rpm.

[5] = molecular target: T1, Glucocorticoid receptor (GR) (Homo sapiens, UniProt P04150); assay: TR-FRET GR competitive binding assay; details: 0.1 μM
T1 sequence (P04150 1-777): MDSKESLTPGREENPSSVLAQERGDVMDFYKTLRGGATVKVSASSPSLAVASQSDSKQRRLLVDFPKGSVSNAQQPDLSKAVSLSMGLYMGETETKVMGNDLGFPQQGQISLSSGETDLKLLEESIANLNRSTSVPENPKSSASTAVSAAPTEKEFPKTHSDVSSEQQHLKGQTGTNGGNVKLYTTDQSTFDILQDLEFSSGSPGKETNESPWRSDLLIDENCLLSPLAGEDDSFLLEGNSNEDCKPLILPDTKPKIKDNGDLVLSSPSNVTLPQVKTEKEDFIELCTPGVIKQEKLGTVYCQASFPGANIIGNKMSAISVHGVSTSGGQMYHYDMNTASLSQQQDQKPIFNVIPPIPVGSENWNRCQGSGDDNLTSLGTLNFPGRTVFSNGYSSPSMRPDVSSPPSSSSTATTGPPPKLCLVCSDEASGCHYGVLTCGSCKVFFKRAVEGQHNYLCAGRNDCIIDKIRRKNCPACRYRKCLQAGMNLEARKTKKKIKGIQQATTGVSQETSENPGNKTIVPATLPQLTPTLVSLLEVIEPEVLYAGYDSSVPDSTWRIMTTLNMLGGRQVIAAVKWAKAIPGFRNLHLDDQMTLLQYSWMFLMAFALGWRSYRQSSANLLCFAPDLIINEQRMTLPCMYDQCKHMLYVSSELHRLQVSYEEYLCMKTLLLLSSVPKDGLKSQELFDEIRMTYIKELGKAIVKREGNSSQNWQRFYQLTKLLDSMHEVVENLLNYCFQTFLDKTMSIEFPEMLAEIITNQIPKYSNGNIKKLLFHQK
Method: Glucocorticoid receptor (GR) binding of prodrugs was determined using TR-FRET GR competitive binding assay. Three-point (0.1, 1 and 10 μM) binding was evaluated for each prodrug.

[6] = Human plasma stability
Method: as §1

[7] = Metabolic stability in rat liver microsomes; format: in vitro ADME; details: rat, microsomes, 1 μM
Method: Rat liver microsomes were obtained from qualified vendors and metabolic stability of the test compound was determined at 1 μM. The compound was incubated at 37° C. with 0.5 mg microsome/mL in the buffer in the presence of 1 mM NADPH. Aliquots of 50 μL were taken from the reaction solution at 0, 15, 30, 45 and 60 minutes. […] All samples were analyzed in duplicates.

[8] = Pharmacokinetic studies in rats: plasma and lung; details: rat, in vivo, iv
Method: Six to eight weeks old Sprague-Dawley rats were procured from a qualified provider. Test compounds were introduced in rats by a single intravenous administration. […] Blood samples (0.1, 0.2 or 0.5 mL) were collected with a 1 mL syringe containing anticoagulants K2EDTA. Blood samples were centrifuged to obtain plasma for analysis. […] After collection at each time point, lung samples were frozen at −75° C. Prior to analysis, a portion of lung sample was weighed and homogenized with phosphate buffer saline. […] Data analysis and pharmacokinetic parameters were generated using WinNonlin software.

[9] = test system: Caco-2 cell monolayers
Method: CaCO-2 cells were cultured, and a monolayer was developed in-house in 96 well-plates over 18 days using standard protocol. The monolayer was tested for the integrity of the cell monolayer before using.
Test compounds were added to the transwell insert (apical compartment) to determine the rate of drug transport in the apical to basolateral direction. To determine the rate of drug transport in the basolateral to apical direction, the test compound was added to the receiver plate wells (basolateral compartment). Appropriate amount of HBSS (10 mM HEPES, pH 7.4) was added in both compartments for a final volume of 200 μL. The plates were incubated at 37° C. with shaking at 150 rpm on a rotary shaker for 2 hours. At the end of the transport period, 50 μL from the apical and basolateral wells were collected and 4 volume of cold acetonitrile containing internal standards (IS: 100 nM alprazolam, 200 nM labetalol, and 2 μM ketoprofen) was added to each sample to terminate the reaction. The samples were vortexed and centrifuged at 3,800 g for 20 minutes. An aliquot of 150 μL of the supernatant was used for LC/MS/MS analysis. All samples were analyzed in duplicates. Samples were analyzed through LC/MS/MS for estimating the permeability and efflux of the compounds across Caco-2 cell monolayers.

[10] = read-out: Rat Plasma Stability t½

Sequence of DPP4 (P27487 whole entry, species assumed): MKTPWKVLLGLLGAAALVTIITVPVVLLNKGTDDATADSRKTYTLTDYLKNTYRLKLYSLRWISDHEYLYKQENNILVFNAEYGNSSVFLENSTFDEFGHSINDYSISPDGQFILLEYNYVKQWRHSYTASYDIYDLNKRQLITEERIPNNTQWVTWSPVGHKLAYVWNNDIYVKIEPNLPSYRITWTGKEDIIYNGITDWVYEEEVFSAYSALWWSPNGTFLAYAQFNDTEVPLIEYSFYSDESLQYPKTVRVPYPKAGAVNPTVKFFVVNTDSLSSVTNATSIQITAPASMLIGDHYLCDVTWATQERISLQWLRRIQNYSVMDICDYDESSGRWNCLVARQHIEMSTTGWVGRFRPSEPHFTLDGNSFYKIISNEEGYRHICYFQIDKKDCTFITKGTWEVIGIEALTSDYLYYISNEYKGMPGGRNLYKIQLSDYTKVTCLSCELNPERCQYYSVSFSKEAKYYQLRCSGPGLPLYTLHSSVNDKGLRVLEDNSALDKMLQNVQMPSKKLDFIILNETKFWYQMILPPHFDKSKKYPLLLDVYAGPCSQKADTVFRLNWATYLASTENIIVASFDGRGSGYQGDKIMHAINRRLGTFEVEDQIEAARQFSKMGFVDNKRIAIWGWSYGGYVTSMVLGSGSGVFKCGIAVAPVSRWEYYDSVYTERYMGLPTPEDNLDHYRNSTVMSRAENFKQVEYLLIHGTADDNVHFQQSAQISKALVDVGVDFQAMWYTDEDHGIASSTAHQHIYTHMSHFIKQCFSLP

CC(C)C(N)C(=O)OCC(=O)[C@@]1(O)[C@H](C)C[C@H]2[C@@H]3CCC4=CC(=O)C=C[C@]4(C)[C@@]3(F)[C@@H](O)C[C@@]21C (some centres unmarked) [Comparative Compound 1, reference compound]
half-life at 5 μM [1]: 2.88 h

C[C@@H]1C[C@H]2[C@@H]3CCC4=CC(=O)C=C[C@]4(C)[C@@]3(F)[C@@H](O)C[C@]2(C)[C@@]1(O)C(=O)COC(=O)[C@@H]1CCCN1 [Comparative Compound 3, reference compound]
half-life at 5 μM [1]: 0.417 h

CC(C)[C@H](N)C(=O)Nc1ccc(C(=O)OCC(=O)[C@@]2(O)[C@H](C)C[C@H]3[C@@H]4CCC5=CC(=O)C=C[C@]5(C)[C@@]4(F)[C@@H](O)C[C@@]32C)cc1 [Compound 1]
half-life at 5 μM [1]: > 4 h

CC(C)[C@H](NC(=O)[C@@H]1CCCN1C(=O)CN)C(=O)Nc1ccc(C(=O)OCC(=O)[C@@]2(O)[C@H](C)C[C@H]3[C@@H]4CCC5=CC(=O)C=C[C@]5(C)[C@@]4(F)[C@@H](O)C[C@@]32C)cc1 [Compound 3]
half-life at 10 μM [2]: 2.53 h

CC(C)[C@H](N)C(=O)Nc1ccc(C(=O)OCC(=O)[C@@]2(O)[C@H](C)C[C@H]3[C@@H]4CCC5=CC(=O)C=C[C@]5(C)[C@@]4(F)[C@@H](O)C[C@@]32C)cc1F [Compound 6]
half-life at 5 μM [3]: > 4 h | half-life at 5 μM [1]: > 4 h

C[C@@H]1CC2[C@@H]3CCC4=CC(=O)C=C[C@]4(C)[C@@]3(F)[C@@H](O)C[C@]2(C)[C@@]1(O)C(=O)COC(=O)c1cccc(F)c1NC(=O)[C@@H](N)Cc1ccccc1.Cl (some centres unmarked) [Compound 7]
Chemical Stability, pH 4.5 [4]: Yes | Chemical Stability, pH 7.4 [4]: Yes

COc1cc(NC(=O)[C@@H](N)C(C)C)c(C(=O)OCC(=O)[C@@]2(O)[C@H](C)CC3[C@@H]4CCC5=CC(=O)C=C[C@]5(C)[C@@]4(F)[C@@H](O)C[C@@]32C)c(OC)c1 (some centres unmarked) [Compound 11]
half-life at 5 μM [3]: > 4 h | half-life at 5 μM [1]: > 4 h

COc1cc(NC(=O)[C@@H](N)Cc2ccccc2)c(C(=O)OCC(=O)[C@@]2(O)[C@H](C)CC3[C@@H]4CCC5=CC(=O)C=C[C@]5(C)[C@@]4(F)[C@@H](O)C[C@@]32C)c(OC)c1 (some centres unmarked) [Compound 12]
half-life at 5 μM [3]: > 4 h | half-life at 5 μM [1]: > 4 h

COc1cc(Br)c(C(=O)OCC(=O)[C@@]2(O)[C@H](C)CC3[C@@H]4CCC5=CC(=O)C=C[C@]5(C)[C@@]4(F)[C@@H](O)C[C@@]32C)c(NC(=O)[C@@H](N)C(C)C)c1 (some centres unmarked) [Compound 13]
half-life at 5 μM [3]: > 4 h | half-life at 5 μM [1]: > 4 h

COc1cc(NC(=O)[C@@H](N)C(C)C)c(C(=O)OCC(=O)[C@@]2(O)[C@H](C)CC3[C@@H]4CCC5=CC(=O)C=C[C@]5(C)[C@@]4(F)[C@@H](O)C[C@@]32C)c(OC(C)C)c1 (some centres unmarked) [Compound 14]
half-life at 5 μM [3]: > 4 h | half-life at 5 μM [1]: > 4 h

COc1cc(N(C)C)cc(NC(=O)[C@@H](N)Cc2ccccc2)c1C(=O)OCC(=O)[C@@]1(O)[C@H](C)CC2[C@@H]3CCC4=CC(=O)C=C[C@]4(C)[C@@]3(F)[C@@H](O)C[C@@]21C (some centres unmarked) [Compound 15]
half-life at 5 μM [3]: > 4 h | half-life at 5 μM [1]: > 4 h

COc1cc(N(C)C)cc(NC(=O)[C@H](Cc2ccccc2)N(C)C)c1C(=O)OCC(=O)[C@@]1(O)[C@H](C)CC2[C@@H]3CCC4=CC(=O)C=C[C@]4(C)[C@@]3(F)[C@@H](O)C[C@@]21C (some centres unmarked) [Compound 16]
half-life at 5 μM [3]: > 4 h | half-life at 5 μM [1]: > 4 h

CC(CC(=O)OCC(=O)[C@@]1(O)[C@H](C)C[C@H]2[C@@H]3CCC4=CC(=O)C=C[C@]4(C)[C@@]3(F)[C@@H](O)C[C@@]21C)c1ccccc1NC(=O)[C@@H](N)C(C)C.Cl (some centres unmarked) [Compound 18]
GR Binding Data [5]: 46%

C[C@@H]1C[C@H]2[C@@H]3CCC4=CC(=O)C=C[C@]4(C)[C@@]3(F)[C@@H](O)C[C@]2(C)[C@@]1(O)C(=O)COC(=O)NCc1ccccc1NC(=O)[C@@H](N)Cc1ccccc1.Cl [Compound 23]
half-life at 5 μM [3, 10]: > 4 h | half-life at 5 μM [6]: > 4 h

CC(C)[C@H](N)C(=O)Nc1ccc([C@H](C)NC(=O)OCC(=O)[C@@]2(O)[C@H](C)C[C@H]3[C@@H]4CCC5=CC(=O)C=C[C@]5(C)[C@@]4(F)[C@@H](O)C[C@@]32C)cc1 [Compound 24]
half-life at 5 μM [3]: > 4 h | half-life at 5 μM [1]: > 4 h

CC(NNC(=O)C1CCCN1)C(C)C(=O)OCC(=O)[C@@]1(O)[C@H](C)C[C@H]2[C@@H]3CCC4=CC(=O)C=C[C@]4(C)[C@@]3(F)[C@@H](O)C[C@@]21C (some centres unmarked) [Compound 28]
half-life at 5 μM [3]: 2.45 h | half-life at 5 μM [1]: > 4 h

CC(C)C(N)C(=O)N1CCCC1C(=O)NCC(C)(C)C(C)C(=O)OCC(=O)[C@@]1(O)[C@H](C)C[C@H]2[C@@H]3CCC4=CC(=O)C=C[C@]4(C)[C@@]3(F)[C@@H](O)C[C@@]21C (some centres unmarked) [Compound 31]
Chemical stability [4]: Yes | Rat plasma stability ([3]; 5 μM): >240 | half-life at 5 μM [3]: > 4 h | RLM [7]: 63 | Lung/Plasma % of Dex [8]: 74% and 100% and 78% | Permeability A-B [9]: A-B = 0.065 × 10^−6, cm/s | Permeability B-A [9]: B-A = 11 × 10^−6, cm/s | half-life at 5 μM [1]: > 4 h | half-life at 10 μM [2]: 2.78 h

CNC(C(=O)N1CCCC1C(=O)NCC(C)(C)C(C)C(=O)OCC(=O)[C@@]1(O)[C@H](C)C[C@H]2[C@@H]3CCC4=CC(=O)C=C[C@]4(C)[C@@]3(F)[C@@H](O)C[C@@]21C)C(C)C (some centres unmarked) [Compound 32]
half-life at 10 μM [2]: 3.57 h

CC(C)C(N)C(=O)N1CCCC1C(=O)NCC1(CC(=O)OCC(=O)[C@@]2(O)[C@H](C)C[C@H]3[C@@H]4CCC5=CC(=O)C=C[C@]5(C)[C@@]4(F)[C@@H](O)C[C@@]32C)CC1 (some centres unmarked) [Compound 34]
half-life at 5 μM [3]: > 4 h | half-life at 5 μM [1]: > 4 h

CC(NC(C)[C@@H](N)C(C)C)c1cscc1C(=O)OCC(=O)[C@@]1(O)[C@H](C)C[C@H]2[C@@H]3CCC4=CC(=O)C=C[C@]4(C)[C@@]3(F)[C@@H](O)C[C@@]21C (some centres unmarked) [Compound 35]
half-life at 5 μM [3]: > 4 h | half-life at 5 μM [1]: > 4 h

CC(NC(=O)[C@@H](N)Cc1ccccc1)c1cscc1C(=O)OCC(=O)[C@@]1(O)[C@H](C)C[C@H]2[C@@H]3CCC4=CC(=O)C=C[C@]4(C)[C@@]3(F)[C@@H](O)C[C@@]21C (some centres unmarked) [Compound 36]
half-life at 5 μM [3]: > 4 h | half-life at 5 μM [1]: > 4 h

CC(C)[C@H](N)C(=O)NCCc1cscc1C(=O)OCC(=O)[C@@]1(O)[C@H](C)C[C@H]2[C@@H]3CCC4=CC(=O)C=C[C@]4(C)[C@@]3(F)[C@@H](O)C[C@@]21C [Compound 37]
half-life at 5 μM [3]: > 4 h | half-life at 5 μM [1]: > 4 h

CC(C)[C@H](N)C(=O)Nc1cscc1CC(=O)OCC(=O)[C@@]1(O)[C@H](C)C[C@H]2[C@@H]3CCC4=CC(=O)C=C[C@]4(C)[C@@]3(F)[C@@H](O)C[C@@]21C.Cl [Compound 38]
Chemical Stability, pH 4.5 [4]: Yes | Chemical Stability, pH 7.4 [4]: Yes | half-life at 5 μM [3, 10]: > 4 h | half-life at 5 μM [6]: > 4 h

C[C@@H]1C[C@H]2[C@@H]3CCC4=CC(=O)C=C[C@]4(C)[C@@]3(F)[C@@H](O)C[C@]2(C)[C@@]1(O)C(=O)CO [Dexamethasone, reference compound]
GR Binding Data [5]: 85%
